For 88 compounds, melting point results are on record in a melting point compilation (Tetko et al.; mined from patent text by program, amines drawn as free bases though some values may be those of a salt).

What is called melting point is the temperature, or range, at which the solid turns liquid.

For `CC(C)(C)c1cc(-n2ccc(=O)[nH]c2=O)cc(Br)c1Cl`, the melting point is over 280 °C.
Next, `CS(=O)(=O)c1ccc(-c2cc(C(=O)CO[N+](=O)[O-])nn2-c2ccccn2)cc1`: 82 to 84 °C; `CC(C)(C)OC(=O)CCc1cccc(-c2nc(=O)c3ccccc3s2)n1`: 166 °C; `Cn1cnnc1C(O)(c1ccc(I)cc1)c1ccc2c(c1)C(c1cccc(Cl)c1)Nc1nnnn1-2` (stereo not drawn): 201 °C.
Next, `CC1(C)CCC(C)(C)c2cc(C(F)C(=O)O)ccc21` (stereo not drawn): 127 to 128 °C; `CC(C)c1cccc(CCC(O)CCCC2CCCCC2)c1NC(=O)CC1c2ccccc2Oc2ccccc21` (stereo not drawn): 142 to 143 °C; `CC(C)(C1CCCCC1)C(NC(=O)c1ccc(Cl)cc1)NC(=NC#N)Nc1cccnc1` (stereo not drawn): 181 to 183 °C.
Next, `O=C(O)c1cnn2c(C(F)(F)F)cc(-c3ccc(Cl)cc3)nc12`: 238 °C; `O=C(O)COc1ccc2c(c1)sc1cc3ccccc3c(-c3ccc(OC(Cc4ccccc4)C(=O)O)cc3)c12` (stereo not drawn): 191 to 201 °C.
For `COC(=O)c1cc(-c2ccc(-c3nccs3)cc2)n(-c2ccc(S(N)(=O)=O)cc2)n1`, the melting point fell in the range of 204 to 206 °C.
Next, `Cc1c(Br)cc(Br)c(NC(=O)CBr)c1Br`: 207 to 209 °C.
In turn, `N=C1SCCN1c1ccc(N)cc1` registered a melting point of 148 °C.
`CC1(C)N=C(c2ccccc2F)c2cc(I)ccc2NC1=O` registered a melting point of 212 °C.
Next, `O=[N+]([O-])c1ccc(Cl)nc1Nc1ccccc1`: 95 to 98 °C.
Next, `CCCCCOC1CCC(=O)N1` (stereo not drawn): 42 to 43 °C; `O=C1CSc2nc(Oc3ccc(N4CCNCC4)cc3)ncc2N1`: 309 to 312 °C.
Next, `CCCNS(=O)(=O)c1cc(C)c2cc(C(C)C)ccc(C)c1-2`: 60 to 62 °C; `CN(c1ccc(OC2CCCC2)cc1)S(C)(=O)=O`: 120 to 122 °C; `O=C(c1ccco1)N1N=CCC1c1ccccc1` (stereo not drawn): 136 to 137 °C.
For `Cc1cccc(-n2nc(C)cc2-c2ccnc(NCCc3ccccc3)c2)c1`, the melting point lay within 86 to 87 °C.
Next, `Cc1oc(-c2ccco2)nc1COc1ccc(COc2nn(Cc3ccc(OCc4nc(-c5ccco5)oc4C)cc3)cc2C=O)cc1`: 109 to 110 °C.
Next, `CCCCOC(=O)[C@H]1CN(c2ccc(C3CCSCC3)cc2)C(=O)O1`: 94 to 96 °C; `CC(=O)N[C@@H](CCc1ccc([N+](=O)[O-])cc1)C(=O)O`: 211 to 213 °C.
Next, `CCc1c(CNS(=O)(=O)Cc2cccc(C(F)(F)F)c2)nn(-c2ccc(Cl)cc2Cl)c1-c1ccc(Br)cc1`: 108 °C; `CCOc1ccccc1NC(=O)C1Sc2ccc(Cl)cc2N(C)C1=O` (stereo not drawn): 124 to 126 °C.
In turn, `CC(=O)Nc1ccc(OCCCN2C(=O)c3ccccc3C2=O)cc1` had a melting point of 154 to 156 °C.
Next, `Cc1ccccc1C(=O)c1ccsc1C(=O)O`: 115 to 117 °C.
Next, `CC(F)(C(N)=O)c1ccc(OS(=O)(=O)C(F)(F)F)cc1` (stereo not drawn): 75 to 78 °C.
Next, `O=C(CN1CCOCC1)Nc1ccc(-n2nc(C3CC3)cc2C2CC2)cc1`: 178 to 184 °C.
For the compound `COc1cc(N)c(Cl)cc1C(=O)N[C@H]1CCN(CCNc2nc3ccccc3[nH]2)C[C@H]1OC` (relative stereo), the melting point stood at 206 °C.
For the compound `CSCc1cn(C)c2cc(Br)ccc2c1=O`, the melting point is 168 to 170 °C.
Next, `COC(=O)c1ccc(Cn2c(C(=O)C3CCN(CCC4(c5ccccc5)CCN(C(=O)c5cc(OC)c(OC)c(OC)c5)C4)CC3)nc3ccccc32)cc1` (stereo not drawn): 92 to 96 °C; `COc1ccc(C(=O)N2CCc3cc(O)c(OC)cc3C2)cc1`: 173 to 174 °C.
Next, `O=C(O)c1cc(Br)cc(C(=O)C=Cc2ccccc2)c1O`: over 250 °C; `Cc1c(CCc2ccccc2)c(=O)oc2cc(O)cc(O)c12`: 248 to 252 °C.
Next, `COc1nc2cc(Cl)c(C)c(N)c2nc1OC`: 181 to 182 °C; `CS(=O)(=O)Nc1ccc([N+](=O)[O-])cc1C(=O)c1ccc(F)cc1F`: 172 to 178 °C.
For `Clc1ccc(OCc2ccccc2)nn1`, the melting point is 77 to 78 °C.
Next, `O=C1OC(=O)c2nc(C(Cl)(Cl)Cl)ccc21`: 126 to 127 °C; `COc1cc2c(cc1O)C(OC)CN(Cc1ccccc1OC)C2` (stereo not drawn): 45 to 47 °C; `Nc1cc(C(Cl)(Cl)Cl)ccn1`: 114 °C.
Next, `O=c1c2c(-c3ccccc3)n[nH]c2c2cccnc2n1-c1ccccc1`: over 300 °C; `NCCCC=CCCC(=O)O`: 139 to 144 °C.
Next, `CCCc1nc2c(N)nc3cc(OCc4ccc(Cl)c(Cl)c4)ccc3c2n1CC(C)C`: 183 to 184 °C; `COCCOc1cc(-n2c(=O)cc(C(F)(F)F)n(C)c2=O)c(F)cc1Cl`: 84 to 87 °C.
The compound `O=C1CNC(c2cccc(Cc3ccccc3)c2)=NN1CC(F)(F)F` had a melting point of 104 to 106 °C.
Next, `CN(C(=O)N(CF)CF)c1nc2ccccc2s1`: 131 to 134 °C.
`O=C1c2ccccc2COc2ccc(O)cc21` had a melting point of 165 to 166 °C.
Next, `Cc1ccc(S(N)(=O)=O)cc1C(C)O` (stereo not drawn): 155 to 158 °C; `Cc1c(NC(=O)NC(C)(C)C)c(C)c2c(c1C(C)O)OCC2c1ccc(C(C)C)cc1` (stereo not drawn): 212 to 214 °C; `N#Cc1c(N2CCCC2)cc(-c2ccccc2)c2c1-c1ccccc1C2=O`: 202 to 204 °C.
Next, `C[C@]1(COC(=O)N(c2ccc(Cl)cc2)c2ccc(Cl)cc2)Cn2cc([N+](=O)[O-])nc2O1`: 200 to 201 °C.
Next, `O=C(COc1ccccc1Br)c1ccccc1`: 112 to 113 °C; `COC(=O)C(=O)c1ccc(OCCOc2cc3ccccc3c3ccccc23)cc1`: 147 to 148 °C; `CN(C)C(c1ccccc1Cl)C1CCCCC1(O)c1ccc2ccccc2c1` (stereo not drawn): over 230 °C.
Consider `C[C@H]1Cn2c(=O)[nH]c3cc(N)cc(c32)CN1CC1CC1`, for which the melting point is 189 °C.
Next, `COc1nnc2n1C=Cc1ccccc1C2c1ccccc1` (stereo not drawn): 183 to 184 °C; `COc1cc(-c2c(Cl)c(CN3C(=O)CCC3=O)nc3sc4c(c23)CCN(C(C)=O)C4)ccc1OC(C)C`: 242 to 243 °C; `CSc1ccc(C(=O)c2cc(C)cc3c2NC(=O)C3)cc1`: 176 to 178 °C.
In the case of `O=P(O)(O)C(O)(Cc1ccc(Cl)cc1)P(=O)(O)O`, the melting point is 219 °C.
As to `CN(C1CCCCC1)S(=O)(=O)c1ccc(Cn2cnc3ccccc32)cc1`, the melting point fell in the range of 191 to 193 °C.
Next, `COc1ccc2c(c1)C1CCN(C)C(C1)N2C` (stereo not drawn): 72 to 73.5 °C.
Next, `Oc1ccc2c(c1)CCN(Cc1ccc(-c3ccccc3)cc1)C2`: 235 to 237 °C; `Cc1ccnc(NC(c2ccc([N+](=O)[O-])cc2)c2ccccc2O)n1` (stereo not drawn): 136 to 145 °C; `CCOP(=O)(/C=C/c1cn(-c2ccccc2)nc1OCc1ccc(OCc2nc(-c3cccc(C(N)=O)c3)oc2C)c(OC)c1)OCC`: 127 to 128 °C.
Next, `Nc1ccc2c(CCl)cc(O)nc2n1`: over 280 °C; `CC(=O)c1ccc(C(F)(F)C(F)(F)c2ccccc2)cc1`: 128 to 133 °C.
`Cc1nc(NC(=N)N)sc1C(=O)Nc1cccc(OCC(=O)O)c1` came in with a melting point of 284 °C.
Next, `O=C(c1c[nH]c(=O)[nH]1)c1ccco1`: 318 to 321 °C.
Next, `CCC(Oc1ccc(C)c(C)c1)C(=O)OC1CC(O)C=C2C=CC(C)C(CCC3CC(O)CC(=O)O3)C21` (mixture of isomers): 137 to 139 °C.
Next, `Cc1c(CC(C)(C)C(=O)O)n(Cc2ccc(Cl)cc2)c2ccc(OCc3ccc(-c4ccccc4)cn3)cc12`: 177 to 179 °C; `CCOC(=O)/C=C/c1ccc(-c2ccc(OCc3ccccc3)c(C34CC5CC(CC(C5)C3)C4)c2)c(Cl)c1`: 148 to 150 °C; `Cc1csc(C2=NOCCO2)c1S(N)(=O)=O`: 155 °C.
Consider `CCOc1ccc(-c2nnc(C#N)o2)cc1`, for which the melting point stood at 110 °C.
Next, `CC12CCC3c4ccc(O)cc4CC(CCCCCO)C3C1C=CC2=O` (stereo not drawn): 194 to 196 °C.
`O=C(NCCOc1ccc(CC(Sc2nc3ccccc3o2)C(=O)O)cc1)c1ccc(-c2ccccn2)cc1` (stereo not drawn): the melting point fell in the range of 66 to 67 °C.
Next, `O=C1Cc2cnccc2N1`: over 250 °C; `O=c1ncc(Br)cn1CC=CCl`: 114 to 116 °C.
Next, `O=P(COc1ccc2ccccc2c1-c1c(OCP(=O)(c2ccccc2)c2ccccc2)ccc2ccccc12)(c1ccccc1)c1ccccc1`: 252 to 253 °C.
Next, `CCCCCCCCCCCCCCOc1ccccc1NS(=O)(=O)c1ccc2c(N=Nc3ccc(OC)cc3)c(O)ccc2c1`: 118 to 121 °C; `C=CCn1c(=O)n(CCCN2CCC3(CC2)C(=O)NCN3c2ccccc2)c2ccccc21`: 198 °C; `COc1ccc(NC(=O)/C=C/c2ccc(N)c(F)c2)cc1N`: 170 to 172 °C.
As for `c1ccc(-c2cc3ccncc3[nH]2)cc1`, the melting point lay within 222 to 224 °C.
Next, `COC(=O)[C@H]1CC[C@H](N2CCN(c3ccc(C4(C)CCN(C(=O)C(F)(F)F)CC4)cc3)C2=O)CC1`: 158 to 161 °C.
In the case of `CCOCCc1nc(N)cc(=O)[nH]1`, the melting point lay in the range of 167 to 170 °C.
Consider `NC(=O)N1CCC2(CC1)CN(c1ccccc1[N+](=O)[O-])c1ccccc12`, for which the melting point was 218 to 219 °C.
Next, `Cc1c(C#N)c(-c2ccc(C#N)cc2)c(C)n1Cc1cnc(Cl)c(CO)c1`: 147 to 148 °C.
Next, `CCC(=O)Nc1cc(C(C)(C)C)on1`: 95 to 96 °C.
